Assays:
Assay in all cases: Large panel kinase profiling
Format in all cases: biochemical
Conditions in all cases: 1 μM test article, 1 mM ATP
AURKC/AURC = target: T1, AURKC/AURC (Homo sapiens, UniProt Q9UQB9)
T1 sequence (Q9UQB9 1-309): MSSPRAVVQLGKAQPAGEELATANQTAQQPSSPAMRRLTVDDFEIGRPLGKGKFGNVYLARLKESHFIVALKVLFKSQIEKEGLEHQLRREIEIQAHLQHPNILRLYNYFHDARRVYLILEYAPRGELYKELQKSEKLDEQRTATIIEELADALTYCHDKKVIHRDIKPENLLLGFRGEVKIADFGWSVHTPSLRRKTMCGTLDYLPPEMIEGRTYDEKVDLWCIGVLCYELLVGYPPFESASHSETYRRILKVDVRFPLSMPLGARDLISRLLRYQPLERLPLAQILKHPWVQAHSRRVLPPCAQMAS
Method in brief: (§1)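 CSox-Sensor fluorescence readout; test article 1 μM, ATP 1 mM, 30° C.; kinetic reads at 1-min intervals, Ex 360/Em 485 nm.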

EPHA1 = target: T2, EPHA1 (Homo sapiens, UniProt P21709)
T2 sequence (P21709 26-976): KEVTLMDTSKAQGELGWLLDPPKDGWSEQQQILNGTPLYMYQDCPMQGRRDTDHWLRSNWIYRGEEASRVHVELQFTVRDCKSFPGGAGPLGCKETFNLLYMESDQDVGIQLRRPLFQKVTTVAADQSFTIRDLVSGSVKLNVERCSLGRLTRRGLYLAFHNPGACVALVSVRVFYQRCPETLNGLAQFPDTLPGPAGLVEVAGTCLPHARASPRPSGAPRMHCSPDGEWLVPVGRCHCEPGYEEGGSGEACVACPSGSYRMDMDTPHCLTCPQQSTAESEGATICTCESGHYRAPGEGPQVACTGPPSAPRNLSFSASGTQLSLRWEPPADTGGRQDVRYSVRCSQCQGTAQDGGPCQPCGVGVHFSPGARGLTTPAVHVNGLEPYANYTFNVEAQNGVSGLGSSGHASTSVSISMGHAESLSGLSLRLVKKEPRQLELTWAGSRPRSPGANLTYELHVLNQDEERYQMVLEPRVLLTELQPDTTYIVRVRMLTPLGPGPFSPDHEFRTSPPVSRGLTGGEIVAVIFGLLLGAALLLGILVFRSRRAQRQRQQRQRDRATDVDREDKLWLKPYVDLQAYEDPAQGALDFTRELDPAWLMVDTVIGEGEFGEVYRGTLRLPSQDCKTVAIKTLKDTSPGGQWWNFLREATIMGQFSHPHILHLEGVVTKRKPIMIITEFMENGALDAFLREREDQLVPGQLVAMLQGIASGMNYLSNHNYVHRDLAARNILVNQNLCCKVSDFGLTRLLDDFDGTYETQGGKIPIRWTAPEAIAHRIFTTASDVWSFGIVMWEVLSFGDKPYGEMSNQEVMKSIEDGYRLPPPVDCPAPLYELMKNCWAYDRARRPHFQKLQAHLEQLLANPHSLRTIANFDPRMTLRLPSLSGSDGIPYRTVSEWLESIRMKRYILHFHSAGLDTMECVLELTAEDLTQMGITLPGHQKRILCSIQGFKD
Method in brief: as §1

ERBB4/HER4 = ERBB4/HER4 (Homo sapiens, UniProt Q15303)
Method in brief: as §1

FGFR1 = FGFR1 (Homo sapiens, UniProt P11362)
Method in brief: as §1

TAOK3 = target: T3, TAOK3 (Homo sapiens, UniProt Q9H2K8)
T3 construct: AssayQuant Technologies, Inc. (contract assay)
T3 sequence (Q9H2K8 1-898): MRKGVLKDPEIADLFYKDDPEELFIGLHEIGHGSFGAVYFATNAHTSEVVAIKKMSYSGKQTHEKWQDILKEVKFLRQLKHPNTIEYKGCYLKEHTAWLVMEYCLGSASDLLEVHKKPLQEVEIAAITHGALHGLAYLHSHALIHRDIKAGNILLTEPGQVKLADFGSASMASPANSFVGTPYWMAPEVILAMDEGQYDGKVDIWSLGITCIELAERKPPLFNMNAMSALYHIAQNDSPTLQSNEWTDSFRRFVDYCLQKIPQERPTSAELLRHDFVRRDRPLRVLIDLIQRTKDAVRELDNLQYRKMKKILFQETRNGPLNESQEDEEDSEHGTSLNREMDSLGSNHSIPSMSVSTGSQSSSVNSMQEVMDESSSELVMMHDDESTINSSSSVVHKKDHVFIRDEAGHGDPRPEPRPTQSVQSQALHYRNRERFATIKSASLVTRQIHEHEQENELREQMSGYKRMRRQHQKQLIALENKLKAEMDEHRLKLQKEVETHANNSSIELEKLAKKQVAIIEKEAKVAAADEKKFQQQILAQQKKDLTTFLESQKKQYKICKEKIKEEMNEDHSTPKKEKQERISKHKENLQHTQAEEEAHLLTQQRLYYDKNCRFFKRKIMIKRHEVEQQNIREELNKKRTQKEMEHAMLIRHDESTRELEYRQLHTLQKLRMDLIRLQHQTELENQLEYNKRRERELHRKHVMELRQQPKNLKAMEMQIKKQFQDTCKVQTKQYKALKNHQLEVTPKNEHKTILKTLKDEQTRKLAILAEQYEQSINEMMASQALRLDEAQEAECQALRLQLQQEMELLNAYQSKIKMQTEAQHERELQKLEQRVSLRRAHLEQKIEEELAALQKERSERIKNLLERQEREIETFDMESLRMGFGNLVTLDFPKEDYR
Method in brief: as §1

ERBB4/HER4, sequence (Q15303 26-1308): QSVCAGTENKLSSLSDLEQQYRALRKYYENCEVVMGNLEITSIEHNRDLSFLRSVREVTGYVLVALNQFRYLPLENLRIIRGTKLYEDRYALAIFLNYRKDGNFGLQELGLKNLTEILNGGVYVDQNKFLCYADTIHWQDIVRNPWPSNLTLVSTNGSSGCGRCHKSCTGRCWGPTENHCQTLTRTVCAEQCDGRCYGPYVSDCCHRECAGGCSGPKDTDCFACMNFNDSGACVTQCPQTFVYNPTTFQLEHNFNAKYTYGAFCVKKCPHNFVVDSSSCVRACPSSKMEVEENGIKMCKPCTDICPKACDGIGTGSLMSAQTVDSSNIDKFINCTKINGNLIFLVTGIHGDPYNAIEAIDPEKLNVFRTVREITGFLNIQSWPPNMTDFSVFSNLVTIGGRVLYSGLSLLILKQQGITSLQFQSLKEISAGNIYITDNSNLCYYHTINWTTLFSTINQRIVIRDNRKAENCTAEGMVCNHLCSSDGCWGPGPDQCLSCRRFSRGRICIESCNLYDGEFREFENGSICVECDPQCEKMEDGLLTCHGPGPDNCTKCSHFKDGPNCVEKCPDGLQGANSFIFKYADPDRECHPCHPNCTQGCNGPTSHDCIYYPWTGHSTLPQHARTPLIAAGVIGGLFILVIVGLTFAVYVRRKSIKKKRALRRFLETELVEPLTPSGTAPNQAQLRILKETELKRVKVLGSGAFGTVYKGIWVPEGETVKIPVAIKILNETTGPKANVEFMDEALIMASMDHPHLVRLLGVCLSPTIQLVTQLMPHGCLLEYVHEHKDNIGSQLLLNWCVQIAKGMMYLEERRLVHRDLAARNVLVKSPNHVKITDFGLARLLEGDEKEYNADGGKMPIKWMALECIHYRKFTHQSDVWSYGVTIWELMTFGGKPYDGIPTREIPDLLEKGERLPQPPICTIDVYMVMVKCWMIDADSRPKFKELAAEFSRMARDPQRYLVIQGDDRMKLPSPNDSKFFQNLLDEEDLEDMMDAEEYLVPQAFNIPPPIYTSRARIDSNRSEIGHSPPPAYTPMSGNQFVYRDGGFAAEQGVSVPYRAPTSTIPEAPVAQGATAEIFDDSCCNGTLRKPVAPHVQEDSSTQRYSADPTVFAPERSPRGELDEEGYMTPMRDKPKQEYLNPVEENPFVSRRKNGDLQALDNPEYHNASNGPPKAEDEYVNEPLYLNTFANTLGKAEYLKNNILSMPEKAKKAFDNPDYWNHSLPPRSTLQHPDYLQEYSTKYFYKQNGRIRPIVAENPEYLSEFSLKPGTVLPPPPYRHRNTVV
FGFR1, sequence (P11362 22-822, species assumed): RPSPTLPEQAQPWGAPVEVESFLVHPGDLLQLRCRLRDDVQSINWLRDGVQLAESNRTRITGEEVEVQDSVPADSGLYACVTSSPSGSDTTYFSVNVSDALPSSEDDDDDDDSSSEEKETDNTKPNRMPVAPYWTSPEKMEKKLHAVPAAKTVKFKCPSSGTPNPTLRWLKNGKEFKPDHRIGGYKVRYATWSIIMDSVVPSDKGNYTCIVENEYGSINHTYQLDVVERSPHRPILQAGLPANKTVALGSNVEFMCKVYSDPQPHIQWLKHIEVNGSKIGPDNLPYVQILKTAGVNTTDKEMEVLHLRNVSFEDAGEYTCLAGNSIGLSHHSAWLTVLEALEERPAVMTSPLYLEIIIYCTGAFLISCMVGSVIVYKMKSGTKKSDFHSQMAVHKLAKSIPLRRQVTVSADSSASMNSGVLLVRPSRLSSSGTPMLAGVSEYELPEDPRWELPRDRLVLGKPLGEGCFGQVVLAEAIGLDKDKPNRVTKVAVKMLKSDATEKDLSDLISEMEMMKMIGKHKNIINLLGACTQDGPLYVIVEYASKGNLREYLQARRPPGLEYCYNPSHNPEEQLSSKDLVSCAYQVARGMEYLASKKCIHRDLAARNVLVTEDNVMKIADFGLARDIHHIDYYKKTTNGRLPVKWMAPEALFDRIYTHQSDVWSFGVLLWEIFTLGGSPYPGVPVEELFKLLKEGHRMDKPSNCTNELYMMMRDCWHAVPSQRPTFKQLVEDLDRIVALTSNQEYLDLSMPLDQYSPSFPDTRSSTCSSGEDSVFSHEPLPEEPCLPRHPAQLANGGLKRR

Compound	inhibition at 1 µM (AURKC/AURC)	inhibition at 1 µM (EPHA1)	inhibition at 1 µM (ERBB4/HER4)	inhibition at 1 µM (FGFR1)	inhibition at 1 µM (TAOK3)
C=CC(=O)N1CCCC(c2c(F)cc(C(N)=O)c3[nH]c4c(c23)CCCCC4)C1 (single isomer, unassigned) [Compound 5-6]	-8.9%	3.7%	-19.7%	18.4%	14.1%
C=CC(=O)N1CCC[C@@H](c2c(F)cc(C(N)=O)c3[nH]c4c(c23)CCC4)C1 [Compound 10-2, (S)-8-(1-acryloylpiperidin-3-yl)-7-fluoro-1,2,3,4-tetrahydrocyclo-penta[b]indole-5-carboxamide]	16.7%	8.5%	17.1%	8.7%	-2.9%
C=CC(=O)N1CCC[C@@H](c2c(F)cc(C(N)=O)c3[nH]c4c(c23)CC2(CC4)CC2)C1 [Compound 6-2, (S)-5-(1-acryloylpiperidin-3-yl)-6-fluoro-1,2,4,9-tetrahydrospiro[carbazole-3,1′-cyclopropane]-8-carboxamide]	-2%	22%	2.4%	6.6%	1.6%
